Data taken from US20240197725A1, “METHOD AND COMPOSITION FOR THE PREVENTION OR TREATMENT OF OSTEOARTHRITIS” (Rhode Island Hospital, priority 2021, published 2024).
Read-outs that look alike come from different tables or passages of the source. Blank lines part the entries; values can stand above or below the compound they belong to.

Legend:
[1] = molecular target: T1, SHP2 (Homo sapiens, UniProt Q06124); details: read-out: SHP2 IC50; cited from earlier work
[2] = molecular target: T1, SHP2; parameters: host or cells: esophageal cancer cells (endogenous SHP2); details: cited from earlier work
[3] = tested on: murine articular cartilage cells; test: Cell viability (WST1) of articular cartilage cells; type: cell-based; details: concentrations as high as 1 μM, 48 hrs, WST1, n=3
Protocol: With respect to toxicity, murine articular cartilage cells were treated with indicated concentration of SHP2D26 for 48 hrs. Cell viabilities were measured using WST1 (n=3).

[4] = molecular target: T2, SHP2 (Mus musculus, UniProt P35235); test: SHP2 degradation in Prg4+ articular cartilage cells (Western blot); type: cell-based, murine; details: chondrocytes, a week after withdrawal
T2 construct: endogenous in cells; host or cells: Prg4+ murine articular cartilage (AC) cells
T2 sequence (P35235 whole entry): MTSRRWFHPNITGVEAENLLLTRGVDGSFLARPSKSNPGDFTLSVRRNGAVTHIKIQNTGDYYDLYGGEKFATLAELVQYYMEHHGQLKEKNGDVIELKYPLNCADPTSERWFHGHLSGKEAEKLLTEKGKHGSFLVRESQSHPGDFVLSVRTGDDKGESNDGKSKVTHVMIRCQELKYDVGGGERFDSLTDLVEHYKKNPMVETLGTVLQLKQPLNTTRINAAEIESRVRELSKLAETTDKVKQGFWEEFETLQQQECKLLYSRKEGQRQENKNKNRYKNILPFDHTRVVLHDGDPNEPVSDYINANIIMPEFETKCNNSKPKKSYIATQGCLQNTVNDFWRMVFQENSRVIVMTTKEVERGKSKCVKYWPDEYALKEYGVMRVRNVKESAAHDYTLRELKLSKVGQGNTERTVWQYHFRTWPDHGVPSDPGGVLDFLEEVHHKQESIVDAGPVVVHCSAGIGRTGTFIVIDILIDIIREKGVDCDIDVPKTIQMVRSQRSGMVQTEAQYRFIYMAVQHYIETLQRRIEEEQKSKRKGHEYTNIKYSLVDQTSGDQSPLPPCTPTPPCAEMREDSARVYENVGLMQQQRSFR

Compound: O=C1/C(=N\Nc2ccc(S(=O)(=O)O)cc2)C(c2ccc([N+](=O)[O-])cc2)=NN1c1ccc([N+](=O)[O-])cc1 [GS-493, 4-((2 Z)-2-(1,3-bis (4-Nitrophenyl)-5-oxo-1,5-dihydro-4H-pyrazol-4-yliden)hydrazino) benzenesulfonic acid, (Z)-4-(2-(1,3-bis(4-Nitrophenyl)-5-oxo-1H-pyrazol-4(5H)-ylidene)hydrazinyl)benzenesulfonic acid]
- IC50 [1]: 71000 nM

Compound: O=c1c2ccccc2n2c(-c3ccccc3O)nnc2n1Cc1ccccc1Cl [SHP357]
- IC50 [1]: > 100000 nM

Compound: C[C@@H]1OCC2(CCN(c3nc4[nH]nc(-c5ccnc(NC6CC6)c5Cl)c4c(=O)n3C)CC2)[C@@H]1N [SHP389, 6-((3S,4S)-4-Amino-3-methyl-2-oxa-8-azaspiro[4.5]decan-8-yl)-3-(3-chloro-2-(cyclopropylamino)pyridin-4-yl)-5-methyl-2,5-dihydro-4H-pyrazolo[3,4-d]pyrimidin-4-one]
- IC50 [1]: 36000 nM

- SHP2 recovered after complete withdrawal of compound from culture medium [4]: about 50%
Compound: Cc1ncsc1-c1ccc([C@H](C)NC(=O)[C@@H]2C[C@@H](O)CN2C(=O)[C@@H](NC(=O)CCCCCCCCN2CCN(C(=O)CCC(=O)Nc3cccc(Sc4ncc(N5CCC(C)(N)CC5)nc4N)c3Cl)CC2)C(C)(C)C)cc1 [SHP-D26, (2S,4R)-1-((S)-2-(9-(4-(4-((3-((3-amino-5-(4-amino-4-methylpiperidin-1-yl)pyrazin-2-yl)thio)-2-chlorophenyl)amino)-4-oxobutanoyl)piperazin-1-yl)nonanamido)-3,3-dimethylbutanoyl)-4-hydroxy-N-((S)-1-(4-(4-methylthiazol-5-yl)phenyl)ethyl)pyrrolidine-2-carboxamide]
- DC50 ([2]; acute myeloid leukemia MV4, 11 cells, read-out: DC50): 2.6 nM
- DC50 ([2]; esophageal cancer KYSE520 cells, read-out: DC50): 6 nM
- DC50 ([2]; range over the cancer cell lines, read-out: SHP2 DC50): 2.6 to 6 nM
- cell viability [3]: did not compromise cell viability
